The assay addresses human P2X7 receptor (Homo sapiens, UniProt Q99572, R270H/Y155H). The assay can be described thus: Evaluation of human P2X7 receptor inhibitory activity (Yo-Pro uptake, BzATP stimulation, FLIPR TETRA). In kind it is cell-based. In short, it runs like this: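 1321N1 cells stably expressing human P2X7 (T606C/G952A SNP variant), in HBSS buffer pH 7.4-7.5 with Yo-Pro, stimulated with BzATP; compound added 8 min after agonist. Fluorescence followed for 20 min on FLIPR; max-minus-min change gave % inhibition, IC50 by logistic fit.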

Where [1] appears, read: 1321N1 cells stably expressing human P2X7 receptor, BzATP stimulation, Yo-Pro uptake, read-out: IC50 (antagonistic activity for the human P2X7 receptor).
[2] abbreviates: antagonistic activity for the human P2X7 receptor, read-out: IC50.
The mark [3] stands for this setting: 1321N1 cells stably expressing human P2X7 receptor, BzATP stimulation, Yo-Pro uptake, read-out: IC50 (antagonistic activity for the human P2X7 receptor), class symbol.

SMILES strings stand for the structures. Where two headings read alike, the source gives them in different places.

As a reminder, the IC50 is the concentration that inhibits the measured activity by half. In the case of `COc1cn(Cc2cc(F)c(F)c(F)c2)c(Nc2cc3scnc3cc2C)nc1=O` [Compound I-0935], the IC50 under setting [1] was found to be 6 nM.
As to `CCOc1cc(Nc2nc(=O)c(OC)cn2Cc2ccc(F)c(Cl)c2)c(C)cc1C` [Compound I-0792], the IC50 under setting [1] is 9 nM.
As to `COc1ccc(Nc2nc(=O)cnn2Cc2cccc(F)c2)c(C)c1` [Compound I-1274], the IC50 under setting [2] was < 10 nM.
For `COc1cn(Cc2ccc(F)c(F)c2)c(Nc2cc3sc(C)nc3cc2C)nc1=O` [Compound I-0665], the IC50 under setting [2] was < 10 nM.
In the case of `COc1cn(Cc2cc(F)cc(F)c2)c(Nc2cccc(Cl)c2C)nc1=O` [Compound I-0002], the IC50 under setting [3] was < 10 nM.
Take `COc1cc(Nc2nc(=O)c(OC)cn2Cc2ccccc2)c(C)cc1Cl` [Compound I-0473]: the IC50 under setting [3] is < 10 nM.
`C=C(C)c1ccc(C)c(Nc2nc(=O)c(OC)cn2Cc2ccc(F)c(Cl)c2)c1` [Compound I-0723]: the IC50 under setting [2] was 10 to 100 nM.
For `CCc1cc(OC)c(OC)cc1Nc1nc(=O)c(OC)cn1Cc1ccc(F)c(Cl)c1` [Compound I-0273], the concentration for half-maximal inhibition (IC50) under setting [3] is < 10 nM.
Consider `Cc1cc(OC(F)F)ccc1Nc1nc(=O)c(F)cn1Cc1cc(F)c(F)c(F)c1` [Compound I-1039], for which, under setting [2], the IC50 was 10 to 100 nM.
Consider `Cc1c(Cl)cccc1Nc1nc(=O)c(F)cn1Cc1ccc(F)c(F)c1` [Compound I-0471], for which the IC50 under setting [3] is < 10 nM.
For `COc1nc(C)c(Nc2nc(=O)c(F)cn2Cc2ccc(F)c(F)c2)cc1C` [Compound I-1008], the concentration for half-maximal inhibition (IC50) under setting [2] was < 10 nM.
In the case of `CCc1cc(OC)c(OC)cc1Nc1nc(=O)c(F)cn1Cc1cccc(Cl)c1` [Compound I-0350], under setting [3], the IC50 was < 10 nM.
Take `Cc1cc2cc(Nc3nc(=O)c(F)cn3Cc3cc(F)cc(F)c3)c(C)cc2[nH]1` [Compound I-1057]: the IC50 under setting [2] was in the range of 10 to 100 nM.
With `COc1cn(Cc2ccc(F)c(Cl)c2)c(Nc2cc3[nH]ccc3cc2C)nc1=O` [Compound I-0619], the IC50 under setting [2] was < 10 nM.
The same measure, in the same setting: the result for `CCOC(=O)c1nn(Cc2cc(F)c(F)c(F)c2)c(Nc2cc(OC)c(OC)cc2C)nc1=O` [Compound I-1252] reads 10 to 100 nM; that for `COc1nc(C)c(Nc2nc(=O)c(F)cn2Cc2cc(F)c(F)c(F)c2)cc1C` [Compound I-1000], < 10 nM.
As for `CCc1c(Nc2nc(=O)c(OC)cn2Cc2ccc(F)cc2)cccc1OC` [Compound I-0213], the half-maximal inhibitory concentration (IC50) under setting [3] is < 10 nM.
For the compound `CCOC(=O)c1cn(Cc2cc(F)c(F)c(F)c2)c(Nc2cc(OC)c(F)cc2C)nc1=O` [Compound I-1122], the IC50 under setting [2] fell in the range of 10 to 100 nM.
With `COCc1cccc(Nc2nc(=O)c(F)cn2Cc2cc(F)c(F)c(F)c2)c1C` [Compound I-1178], under setting [2], the 50% inhibitory concentration (IC50) was < 10 nM.
Regarding `COc1cn(Cc2cc(F)cc(Cl)c2)c(Nc2cc(-c3ccnn3C)ccc2C)nc1=O` [Compound I-0734], the IC50 under setting [2] was 10 to 100 nM.
Regarding `COc1cn(Cc2cc(F)cc(F)c2)c(Nc2cc(-c3cnccn3)ccc2C)nc1=O` [Compound I-0684], the IC50 under setting [2] fell in the range of 10 to 100 nM.
The same measure, in the same setting: the result for `O=c1nc(Nc2cccc3c(O)cccc23)n(Cc2ccc(F)c(Cl)c2)cc1F` [Compound I-1116] reads < 10 nM.
For the compound `COc1cn(Cc2ccccc2COC(F)F)c(Nc2cccc(Cl)c2C)nc1=O` [Compound I-0447], the IC50 under setting [3] was < 10 nM.
On to `COCc1cn(Cc2cc(F)c(F)c(F)c2)c(Nc2cc(CO)ccc2C)nc1=O` [Compound I-1152], for which the 50% inhibitory concentration (IC50) under setting [2] is < 10 nM.
As for `CCOc1cc(Nc2nc(=O)c(OC)cn2Cc2ccc(F)c(F)c2)c(C)cc1C` [Compound I-0793], under setting [2], the half-inhibitory concentration (IC50) is < 10 nM.
In the case of `COc1cn(Cc2ccccc2)c(Nc2cc(N3CCN(C(=O)OC(C)(C)C)CC3)ccc2C)nc1=O` [Compound I-0411], the IC50 under setting [3] is 100 to 500 nM.
As to `COc1cn(Cc2ccc(F)c(C)c2)c(Nc2cccc(Cl)c2C)nc1=O` [Compound I-0520], the IC50 under setting [1] came out at 9 nM.
For `COc1cn(Cc2cc(F)cc(F)c2)c(Nc2cc3c(cc2C)COC3)nc1=O` [Compound I-0003], under setting [3], the IC50 was < 10 nM.
As to `Cc1cc(Cl)ccc1Nc1nc(=O)c(F)cn1Cc1cc(F)c(F)c(F)c1` [Compound I-1192], the IC50 under setting [2] is < 10 nM.

Source of the values: patent US10774051B2, “6-membered heterocyclic derivatives and pharmaceutical composition comprising the same” (Shionogi & Co., Ltd., priority 2015, dated 2020).
